Measurements: PMC6154745 (Oncotarget, 2018)
Marks after values point to notes of the source that are not given here.

Tests used:
lung DNA = assay: Bulky DNA adducts by 32P postlabeling, Study 2, lung; type: in vivo, ICR (CD-1) mice
Protocol: (§1) DNA was extracted from tissue specimens (50 mg) collected individually from the lungs of 40 Swiss H mice used in Study 1 and from lungs, heart and liver of 80 ICR (CD-1) mice used in Study 2, as previously described. Bulky DNA adducts, after butanol enrichment, and 8-hydroxy-2’-deoxyguanosine (8-oxo-dGuo) were measured by ^32P postlabeling as previously described.

colon miRNAs = assay: miRNA expression (microarray), Study 3, colon; type: in vivo, ICR (CD-1) mice
Protocol: (§2) Each group was composed of 10 female mice.
(§3) The urine was collected for 8 h and pooled from the mice belonging to each experimental group in Study 3 by using metabolic cages during the day preceding euthanasia of mice. Immediately after sacrifice, a bronchoalveolar lavage (BAL) was performed and used for preparing BALF, and the blood was collected and used for preparing serum. BALF and blood serum were pooled within each experimental group. The organs reported in the general design of the studies were collected, as previously described. Immediately after collection, each organ or fluid was immersed in RNAlater and kept at -80°C for miRNA analysis. Portions of the organs used in Study 1 and Study 2 were stored at -80°C for evaluating DNA damage.
(§4) For evaluating the expression of pulmonary miRNAs we used the 7th generation miRCURY LNA™ microRNA Array (Exiqon), which contains 3,100 capture probes covering human, mouse and rat miRNAs. In particular, this array covers 1,135 mouse miRNAs, i.e. the 88.6% of the 1,281 mouse miRNAs listed in miRBase 19. Microarray analyses were carried out as previously described.
(§5) Treatment-related differences in body weights, in the frequency of MN NCE, and in the levels of pulmonary DNA adducts and 8-oxo-dGuo, all of them expressed as means ± SE within each group of mice, were evaluated for statistical significance by ANOVA followed by Student's t test for unpaired data. miRNA microarray data, after local background subtraction, log transformation, and normalization were analyzed by GeneSpring software (Agilent, Santa Clara, CA), and expression data were median centered by using the GeneSpring normalization option.

kidney miRNAs = assay: miRNA expression (microarray), Study 3, kidney; type: in vivo, ICR (CD-1) mice
Protocol: as §2, §3, §4, §5

blood serum miRNAs = assay: Blood serum miRNAs (microarray), Study 1; type: in vivo, Swiss H mice
BALF miRNAs = assay: miRNA expression (microarray), Study 3, BALF; type: in vivo, ICR (CD-1) mice
Protocol: as §2, §3, §4, §5

liver DNA = assay: Bulky DNA adducts by 32P postlabeling, Study 2, liver; type: in vivo, ICR (CD-1) mice; conditions: for Bulky DNA adducts: Liver; for increase of DNA adduct levels over sham-exposed mice: liver
Protocol: as §2, §1

heart DNA = assay: Bulky DNA adducts by 32P postlabeling, Study 2, heart; type: in vivo, ICR (CD-1) mice; conditions: for Bulky DNA adducts: Heart; for decrease of DNA adduct levels vs MCS-exposed mice without celecoxib / increase of DNA adduct levels over sham-exposed mice: heart
Protocol: as §2, §1

pulmonary miRNAs = assay: Pulmonary miRNA expression (microarray), Study 1
Protocol: Ten mice per group (5 males and 5 females) were used. […] Twenty mice per group (10 males and 10 females) were used. […] Each group was composed of 10 female mice.
RNA was extracted from mouse organs (miRNeasy, Qiagen, Hilden, Germany) and body fluids (Exiqon's miRCURY™ RNA Isolation Kit – Biofluids (Exiqon, Vedbaek, Denmark) according to the manufacturers’ instructions. The quality of the RNA extracted was evaluated by spectrophotometric analyses using a fiber optic spectrophotometer (Nanodrop ND-1000).
For evaluating the expression of pulmonary miRNAs we used the 7th generation miRCURY LNA™ microRNA Array (Exiqon), which contains 3,100 capture probes covering human, mouse and rat miRNAs. In particular, this array covers 1,135 mouse miRNAs, i.e. the 88.6% of the 1,281 mouse miRNAs listed in miRBase 19. Microarray analyses were carried out as previously described [22].
Treatment-related differences in body weights, in the frequency of MN NCE, and in the levels of pulmonary DNA adducts and 8-oxo-dGuo, all of them expressed as means ± SE within each group of mice, were evaluated for statistical significance by ANOVA followed by Student's t test for unpaired data. miRNA microarray data, after local background subtraction, log transformation, and normalization were analyzed by GeneSpring software (Agilent, Santa Clara, CA), and expression data were median centered by using the GeneSpring normalization option. The statistical significance of the differences between experimental groups was evaluated by means of the GeneSpring ANOVA applied by using Bonferroni multiple testing correction. […] The overall variability of microarray data, as related to treatments, was evaluated by scatter-plot analysis (SPA), hierarchical cluster analysis (HCA), and principal component analysis (PCA).

spleen miRNAs = assay: miRNA expression (microarray), Study 3, spleen; type: in vivo, ICR (CD-1) mice
Protocol: as §2, §3, §4, §5

stomach miRNAs = assay: miRNA expression (microarray), Study 3, stomach; type: in vivo, ICR (CD-1) mice
Protocol: as §2, §3, §4, §5

liver miRNAs = assay: miRNA expression (microarray), Study 3, liver; type: in vivo, ICR (CD-1) mice
Protocol: as §2, §3, §4, §5

urinary bladder miRNAs = assay: miRNA expression (microarray), Study 3, urinary bladder; type: in vivo, ICR (CD-1) mice
Protocol: as §2, §3, §4, §5

urine miRNAs = assay: miRNA expression (microarray), Study 3, urine; type: in vivo, ICR (CD-1) mice
Protocol: as §2, §3, §4, §5

brain miRNAs = assay: miRNA expression (microarray), Study 3, brain; type: in vivo, ICR (CD-1) mice; conditions: high dose
Protocol: as §2
as §3, with “damage. […]” for “damage.”
as §5

heart miRNAs = assay: miRNA expression (microarray), Study 3, heart; type: in vivo, ICR (CD-1) mice
Protocol: as §2, §3, §4, §5

[1] = celecoxib in MCS-exposed mice vs MCS
[2] = urine, low dose (20 mg/kg diet) vs sham

Cc1ccc(-c2cc(C(F)(F)F)nn2-c2ccc(S(N)(=O)=O)cc2)cc1 [Celecoxib, 4-[5-(4-methylphenyl)-3-(trifluoromethyl)-1H-pyrazol-1-yl] benzene-1-sulfonamide]
Bulky DNA adducts (lung DNA; F): 3.7 ± 0.31^c adducts/10^8 nucleotides | Bulky DNA adducts (lung DNA; M): 4.4 ± 0.56^c adducts/10^8 nucleotides | Bulky DNA adducts (lung DNA; M + F): 4.0 ± 0.31^c adducts/10^8 nucleotides | decrease of DNA adduct levels vs MCS-exposed mice without celecoxib (lung DNA; combined genders): 1.6 fold | decrease of DNA adduct levels vs MCS-exposed mice without celecoxib (lung DNA; males): 1.5 fold | decrease of DNA adduct levels vs MCS-exposed mice without celecoxib (lung DNA; printed 'males' a second time): 1.7 fold | increase of DNA adduct levels over sham-exposed mice (lung DNA; combined genders): 2.7 fold | increase of DNA adduct levels over sham-exposed mice (lung DNA; females): 2.5 fold | increase of DNA adduct levels over sham-exposed mice (lung DNA; males): 2.9 fold | autoradiographic spots formed (lung DNA; smoke-free mice): 3 | upregulated/downregulated miRNAs (colon miRNAs; MCS-exposed mice): 0/2 | miR-185-5p downregulation (colon miRNAs; MCS-free mice): 8 fold | miR-301 downregulation (colon miRNAs; MCS-free mice): 6 fold | upregulated/downregulated miRNAs (colon miRNAs; MCS-free mice): 1/4 | number of miRNAs modulated by celecoxib (colon miRNAs; high dose): 7 | upregulated/downregulated miRNAs (kidney miRNAs; MCS-exposed mice): 0/0 | miR-30c-2-3p downregulation (kidney miRNAs; MCS-free mice): 14 fold | miR-30c-2-5p downregulation (kidney miRNAs; MCS-free mice): 13 fold | miR-30e downregulation (kidney miRNAs; MCS-free mice): 8 fold | miR-185-5p downregulation (kidney miRNAs; MCS-free mice): 25 fold | miR-301 downregulation (kidney miRNAs; MCS-free mice): 7 fold | miR-802-3p downregulation (kidney miRNAs; MCS-free mice): 6 fold | miR-1964-5p downregulation (kidney miRNAs; MCS-free mice): 7 fold | upregulated/downregulated miRNAs (kidney miRNAs; MCS-free mice): 7/20 | number of miRNAs modulated by celecoxib (kidney miRNAs; high dose): 27 | number of blood miRNAs on which the effect of MCS was counteracted (blood serum miRNAs; MCS-exposed mice given celecoxib): 7 | number of miRNAs significantly modulated in blood serum (blood serum miRNAs; vs sham-exposed mice, 2-fold variation and P < 0.05): 18 | miR-1964-5p downregulation (BALF miRNAs; MCS-exposed mice): 3 fold | upregulated/downregulated miRNAs (BALF miRNAs; MCS-exposed mice): 0/2 | miR-1964-5p downregulation (BALF miRNAs; MCS-free mice): 6 fold | upregulated/downregulated miRNAs (BALF miRNAs; MCS-free mice): 2/3 | number of miRNAs modulated by celecoxib (BALF miRNAs; high dose): 7 | Bulky DNA adducts (liver DNA; F): 1.8 ± 0.08^c adducts/10^8 nucleotides | Bulky DNA adducts (liver DNA; M): 1.6 ± 0.12^a adducts/10^8 nucleotides | Bulky DNA adducts (liver DNA; M + F): 1.7 ± 0.08^a adducts/10^8 nucleotides | increase of DNA adduct levels over sham-exposed mice (liver DNA; MCS-exposed mice treated with celecoxib, females): 1.5 fold | increase of DNA adduct levels over sham-exposed mice (liver DNA; MCS-exposed mice treated with celecoxib, males): 1.3 fold | increase of DNA adduct levels over sham-exposed mice (liver DNA; MCS-exposed mice treated with celecoxib, mixed genders): 1.4 fold | increase of DNA adduct levels over sham-exposed mice (liver DNA; combined genders): 1.4 fold | increase of DNA adduct levels over sham-exposed mice (liver DNA; females): 1.5 fold | increase of DNA adduct levels over sham-exposed mice (liver DNA; males): 1.3 fold | Bulky DNA adducts (heart DNA; F): 3.6 ± 0.37^c adducts/10^8 nucleotides | Bulky DNA adducts (heart DNA; M): 3.3 ± 0.18^c adducts/10^8 nucleotides | Bulky DNA adducts (heart DNA; M + F): 3.4 ± 0.17^c adducts/10^8 nucleotides | decrease of DNA adduct levels vs MCS-exposed mice without celecoxib (heart DNA; combined genders): 1.3 fold | decrease of DNA adduct levels vs MCS-exposed mice without celecoxib (heart DNA; females): 1.5 fold | decrease of DNA adduct levels vs MCS-exposed mice without celecoxib (heart DNA; males (not statistically significant)): 1.1 fold | increase of DNA adduct levels over sham-exposed mice (heart DNA; combined genders): 2.2 fold | increase of DNA adduct levels over sham-exposed mice (heart DNA; females): 2.4 fold | increase of DNA adduct levels over sham-exposed mice (heart DNA; males): 2.1 fold | number of pulmonary miRNAs significantly dysregulated (pulmonary miRNAs; [1]): 11 | share of pulmonary miRNAs significantly dysregulated (pulmonary miRNAs; [1]): 1.0% | number of pulmonary miRNAs downregulated (pulmonary miRNAs; vs sham-exposed mice): 2 | number of pulmonary miRNAs upregulated (pulmonary miRNAs; vs sham-exposed mice): 19 | upregulated/downregulated miRNAs (spleen miRNAs; MCS-exposed mice): 1/7 | miR-30c-2-5p downregulation (spleen miRNAs; MCS-free mice): 7 fold | upregulated/downregulated miRNAs (spleen miRNAs; MCS-free mice): 2/7 | number of miRNAs modulated by celecoxib (spleen miRNAs; high dose): 17 | miR-125b downregulation (stomach miRNAs; MCS-exposed mice): 9 fold | miR-802-3p upregulation (stomach miRNAs; MCS-exposed mice): 3 fold | upregulated/downregulated miRNAs (stomach miRNAs; MCS-exposed mice): 3/3 | miR-1964-5p downregulation (stomach miRNAs; MCS-free mice): 4 fold | upregulated/downregulated miRNAs (stomach miRNAs; MCS-free mice): 2/12 | number of miRNAs modulated by celecoxib (stomach miRNAs; high dose): 20 | upregulated/downregulated miRNAs (liver miRNAs; MCS-exposed mice): 2/1 | miR-30c-2-3p downregulation (liver miRNAs; MCS-free mice): 9 fold | miR-30e downregulation (liver miRNAs; MCS-free mice): 10 fold | miR-802-3p downregulation (liver miRNAs; MCS-free mice): 7 fold | upregulated/downregulated miRNAs (liver miRNAs; MCS-free mice): 0/15 | number of miRNAs modulated by celecoxib (liver miRNAs; high dose): 18 | miR-30c-2-3p downregulation (urinary bladder miRNAs; MCS-exposed mice): 7 fold | miR-30e upregulation (urinary bladder miRNAs; MCS-exposed mice): 6 fold | miR-185-5p downregulation (urinary bladder miRNAs; MCS-exposed mice): 14 fold | miR-701-3p upregulation (urinary bladder miRNAs; MCS-exposed mice): 5 fold | miR-802-3p upregulation (urinary bladder miRNAs; MCS-exposed mice): 5 fold | miR-1964-5p downregulation (urinary bladder miRNAs; MCS-exposed mice): 5 fold | upregulated/downregulated miRNAs (urinary bladder miRNAs; MCS-exposed mice): 8/12 | miR-30c-2-5p downregulation (urinary bladder miRNAs; MCS-free mice): 10 fold | miR-30e downregulation (urinary bladder miRNAs; MCS-free mice): 8 fold | miR-185-5p downregulation (urinary bladder miRNAs; MCS-free mice): 20 fold | miR-301 downregulation (urinary bladder miRNAs; MCS-free mice): 8 fold | upregulated/downregulated miRNAs (urinary bladder miRNAs; MCS-free mice): 0/10 | number of miRNAs modulated by celecoxib (urinary bladder miRNAs; high dose): 30 | number of miRNAs modulated (urine miRNAs; urine, high dose): 3 | number of miRNAs modulated (urine miRNAs; urine, low dose): 2 | miR-290 downregulation (urine miRNAs; [2]): 2.4 fold | miR-1945b downregulation (urine miRNAs; [2]): 2.4 fold | upregulated/downregulated miRNAs (urine miRNAs; urines, MCS-free mice): 0/3 | number of miRNAs modulated by celecoxib (urine miRNAs; urines, high dose): 3 | number of miRNAs modulated by celecoxib (brain miRNAs): 0 | upregulated/downregulated miRNAs (heart miRNAs; MCS-exposed mice): 0/1 | upregulated/downregulated miRNAs (heart miRNAs; MCS-free mice): 0/2 | number of miRNAs modulated by celecoxib (heart miRNAs; high dose): 3
